Data taken from ChEMBL document CHEMBL4406823 (Eur J Med Chem, 2019).
The source made the active and inactive calls. No cut-off for these calls is given here.

Tests used:
HL-60 = assay: Antiproliferative activity against human HL60 cells assessed as inhibition of cell proliferation incubated for 72 hrs by MTT assay; assay type: functional, cell-based; conditions: HL-60, 72 h
SEM cells = assay: Antiproliferative activity against human SEM cells assessed as inhibition of cell proliferation incubated for 72 hrs by MTT assay; assay type: functional, cell-based
HT-29 = assay: cells; conditions: Homo sapiens, HT-29, 72 h
Description: Antiproliferative activity against human HT-29 cells assessed as inhibition of cell proliferation incubated for 72 hrs by MTT assay

MCF7 = assay: cells; conditions: Homo sapiens, MCF7, 72 h
Description: Antiproliferative activity against human MCF7 cells assessed as inhibition of cell proliferation incubated for 72 hrs by MTT assay

MDA-MB-231 = assay: Antiproliferative activity against human MDA-MB-231 cells assessed as inhibition of cell proliferation incubated for 72 hrs by MTT assay; assay type: functional, cell-based; conditions: MDA-MB-231, 72 h
Tubulin = Tubulin (Bos taurus, UniProt Q6B856+Q862L2+Q862F3); assay: Inhibition of bovine brain tubulin assembly using GTP as substrate incubated for 20 mins by spectrophotometric method
Tubulin (Bos taurus) [1] = target: T1, Tubulin (Bos taurus) (UniProt Q6B856+Q862L2+Q862F3); assay: Displacement of [3H]-colchicine from bovine brain tubulin at 5 uM incubated for 1 hr by relative to control
HeLa = assay: cells; conditions: Homo sapiens, 72 h
Description: Antiproliferative activity against human HeLa cells assessed as inhibition of cell proliferation incubated for 72 hrs by MTT assay

Tubulin (Bos taurus) [2] = target: T1, Tubulin (Bos taurus); assay: Displacement of [3H]-colchicine from bovine brain tubulin at 0.5 uM incubated for 1 hr by relative to control
E0771 = assay: Antitumour activity against mouse E0771 cells allografted in C57BL/6 mouse assessed as reduction in tumor mass at 30 mg/kg, ip administrated every other day by caliper method; assay type: functional, organism-based

COc1ccc(-c2c[nH]nc2-c2cc(OC)c(OC)c(OC)c2)cc1C
IC50 (HL-60): 17.7 nM | IC50 (SEM cells): 17.2 nM | IC50 (HT-29): 37.3 nM | IC50 (MCF7): > 10000 nM | IC50 (MDA-MB-231): 2680 nM | IC50 (Tubulin): 440 nM | inhibition (Tubulin (Bos taurus) [1]): 81% | IC50 (HeLa): 32.9 nM

CCSc1ccc(-c2c[nH]nc2-c2cc(OC)c(OC)c(OC)c2)cc1
IC50 (HL-60): 29.7 nM | IC50 (SEM cells): 13.9 nM | IC50 (HT-29): 5.4 nM | IC50 (MCF7): 492 nM | IC50 (MDA-MB-231): 31.4 nM | IC50 (Tubulin): 480 nM | inhibition (Tubulin (Bos taurus) [1]): 85% | IC50 (HeLa): 12.5 nM

COc1cc(-c2n[nH]cc2-c2ccc3ccccc3c2)cc(OC)c1OC
IC50 (HL-60): 9.4 nM | IC50 (SEM cells): 3.3 nM | inhibition (Tubulin (Bos taurus) [2]): 68% | IC50 (HT-29): 8.1 nM | IC50 (MCF7): 21.4 nM | IC50 (MDA-MB-231): 28.4 nM | IC50 (Tubulin): 410 nM | inhibition (Tubulin (Bos taurus) [1]): 91% | IC50 (HeLa): 6.6 nM

COc1ccc(/C=C\c2cc(OC)c(OC)c(OC)c2)cc1OP(=O)(O)O
inhibition (E0771): Active

CCc1ccc(-c2c[nH]nc2-c2cc(OC)c(OC)c(OC)c2)cc1
IC50 (HL-60): 23.3 nM | IC50 (SEM cells): 18.7 nM | IC50 (HT-29): 41.3 nM | IC50 (MCF7): > 10000 nM | IC50 (MDA-MB-231): 3270 nM | IC50 (Tubulin): 520 nM | inhibition (Tubulin (Bos taurus) [1]): 85% | IC50 (HeLa): 33.5 nM

COc1cc(-c2n[nH]cc2-c2ccc(C)c(F)c2)cc(OC)c1OC
IC50 (HL-60): 31 nM | IC50 (SEM cells): 23.5 nM | inhibition (Tubulin (Bos taurus) [2]): 49% | IC50 (HT-29): 67.4 nM | IC50 (MCF7): 1700 nM | IC50 (MDA-MB-231): 481 nM | IC50 (Tubulin): 480 nM | inhibition (Tubulin (Bos taurus) [1]): 91% | IC50 (HeLa): 26.2 nM

COc1cc(-c2n[nH]cc2-c2ccc(OC(F)(F)F)cc2)cc(OC)c1OC
IC50 (HL-60): 1750 nM | IC50 (SEM cells): 2470 nM | IC50 (HT-29): 2420 nM | IC50 (MCF7): > 10000 nM | IC50 (MDA-MB-231): 5740 nM | IC50 (HeLa): 3380 nM

COc1cc(-c2n[nH]cc2-c2ccc(SC)cc2)cc(OC)c1OC
IC50 (HL-60): 40.9 nM | IC50 (SEM cells): 30.1 nM | IC50 (HT-29): 51.3 nM | IC50 (MCF7): > 10000 nM | IC50 (MDA-MB-231): 3650 nM | IC50 (Tubulin): 570 nM | inhibition (Tubulin (Bos taurus) [1]): 85% | IC50 (HeLa): 28.7 nM

COc1cc(-c2n[nH]cc2-c2cc3ccccc3s2)cc(OC)c1OC
IC50 (HL-60): 2.3 nM | IC50 (SEM cells): 0.5 nM | inhibition (Tubulin (Bos taurus) [2]): 69% | IC50 (HT-29): 7.4 nM | IC50 (MCF7): 1.4 nM | IC50 (MDA-MB-231): 2.5 nM | IC50 (Tubulin): 300 nM | inhibition (Tubulin (Bos taurus) [1]): 93% | IC50 (HeLa): 1.7 nM

CCCc1ccc(-c2c[nH]nc2-c2cc(OC)c(OC)c(OC)c2)cc1
IC50 (HL-60): 553 nM | IC50 (SEM cells): 406 nM | IC50 (HT-29): 541 nM | IC50 (MCF7): 2790 nM | IC50 (MDA-MB-231): 1550 nM | IC50 (HeLa): 361 nM

COc1cc(-c2c[nH]nc2-c2cc(OC)c(OC)c(OC)c2)ccc1C
IC50 (HL-60): 160 nM | IC50 (SEM cells): 305 nM | IC50 (HT-29): 316 nM | IC50 (MCF7): > 10000 nM | IC50 (MDA-MB-231): 5280 nM | IC50 (HeLa): 287 nM

COc1cc(-c2n[nH]cc2-c2ccc(C)c(C)c2)cc(OC)c1OC
IC50 (HL-60): 51.3 nM | IC50 (SEM cells): 28.5 nM | IC50 (HT-29): 68.4 nM | IC50 (MCF7): 769 nM | IC50 (MDA-MB-231): 2610 nM | IC50 (Tubulin): 610 nM | inhibition (Tubulin (Bos taurus) [1]): 85% | IC50 (HeLa): 35.9 nM
